# Measurements taken from patent publication US9867833B2, “Serine/threonine kinase inhibitors” (GENENTECH, INC., priority 2013, dated 2018).
# Biological target: human ERK-2 (Mitogen Activated Kinase 1) (Homo sapiens (Human), UniProt P28482)
# Assay: ERK-2 Enzymatic Assay
# Type: biochemical
# Conditions: human ERK-2 enzyme 5 nM, 25 μM ATP, S/T17 peptide substrate; isomer = configuration of CR2R3
# Procedure: Compounds were tested in an enzymatic assay using human ERK-2 (Mitogen Activated Kinase 1), recombinantly expressed as an n-terminal 6-His fusion protein in E. coli and corresponding to aa 8-360. […] Test compounds were diluted in DMSO in 3-fold serial dilutions at 100× final concentrations. […] The data collected from each well was fit to a straight line, and the resulting rates were used to calculate percent of control. Percent of control was plotted against compound concentration, and IC50 values were determined using a four-parameter fit.
# Chain of human ERK-2 (Mitogen Activated Kinase 1) (P28482 8-360): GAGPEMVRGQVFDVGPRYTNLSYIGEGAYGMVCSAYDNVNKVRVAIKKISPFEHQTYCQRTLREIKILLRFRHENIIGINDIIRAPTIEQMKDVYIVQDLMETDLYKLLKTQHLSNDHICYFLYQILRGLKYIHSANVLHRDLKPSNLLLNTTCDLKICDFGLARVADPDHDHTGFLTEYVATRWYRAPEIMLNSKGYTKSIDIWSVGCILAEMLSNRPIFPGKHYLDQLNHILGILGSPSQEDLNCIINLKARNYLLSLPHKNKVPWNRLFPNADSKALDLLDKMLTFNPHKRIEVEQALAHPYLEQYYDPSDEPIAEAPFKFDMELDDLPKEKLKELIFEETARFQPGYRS
row,SMILES,IC50
1,"CCC(C)CC1COc2cc(-c3ccnc(Nc4ccnn4C)n3)cc3nnc1n23 (single isomer, unassigned) [(R) I-52, N-(1-methyl-1H-pyrazol-5-yl)-4-(3-(2-methylbutyl)-3,4-dihydro-5-oxa-1,2,2a^1-triazaacenaphthylen-7-yl)pyrimidin-2-amine]",< 0.02 nM
2,"Cn1nccc1Nc1cc(-c2cc3n4c(nnc4c2)C(Cc2ccc(Cl)cc2)CO3)ccn1 (single isomer, unassigned) [(R) I-55, 4-(3-(4-chlorobenzyl)-3,4-dihydro-5-oxa-1,2,2a^1-triazaacenaphthylen-7-yl)-N-(1-methyl-1H-pyrazol-5-yl)pyridin-2-amine]",< 0.02 nM
3,"CCCC1COc2cc(-c3ccnc(Nc4ccnn4C)n3)cc3nnc1n23 (single isomer, unassigned) [(R) I-101, N-(1-methyl-1H-pyrazol-5-yl)-4-(3-propyl-3,4-dihydro-5-oxa-1,2,2a^1-triazaacenaphthylen-7-yl)pyrimidin-2-amine]",0.038 nM
4,"CCC(C)CC1COc2cc(-c3ccnc(Nc4ccnn4C)n3)cc3nnc1n23 (single isomer, unassigned) [(S) I-52, N-(1-methyl-1H-pyrazol-5-yl)-4-(3-(2-methylbutyl)-3,4-dihydro-5-oxa-1,2,2a^1-triazaacenaphthylen-7-yl)pyrimidin-2-amine]",93.4 nM
5,"Cn1nccc1Nc1cc(-c2cc3n4c(nnc4c2)C(Cc2ccc(Cl)cc2)CO3)ccn1 (single isomer, unassigned) [(S) I-55, 4-(3-(4-chlorobenzyl)-3,4-dihydro-5-oxa-1,2,2a^1-triazaacenaphthylen-7-yl)-N-(1-methyl-1H-pyrazol-5-yl)pyridin-2-amine]",12.5 nM
6,"Cn1nccc1Nc1nccc(-c2cc3n4c(nnc4c2)[C@H](c2ccccc2)CN3)n1 [(R) I-1, N-(1-methyl-1H-pyrazol-5-yl)-4-(3-phenyl-4,5-dihydro-3H-1,2,2a^1,5-tetraazaacenaphthylen-7-yl)pyrimidin-2-amine]",179 nM
7,"Cn1nccc1Nc1nccc(-c2cc3n4c(nnc4c2)[C@H](Cc2ccccc2)CN3)n1 [(R) I-2, (R)-4-(3-benzyl-4,5-dihydro-3H-1,2,2a^1,5-tetraazaacenaphthylen-7-yl)-N-(1-methyl-1H-pyrazol-5-yl)pyrimidin-2-amine]",0.38 nM
8,"Cn1nccc1Nc1cc(-c2cc3n4c(ncc4c2)[C@H](Cc2ccc(Cl)cc2)CN3)ccn1 [(R) I-8, 4-(3-(4-chlorobenzyl)-4,5-dihydro-3H-1,2,2a^1,5-tetraazaacenaphthylen-7-yl)-N-(1-methyl-1H-pyrazol-5-yl)pyridin-2-amine]",1.55 nM
9,"CN1C[C@@H](Cc2ccccc2)c2nnc3cc(-c4ccnc(Nc5ccnn5C)n4)cc1n23 [(R) I-9, 4-(3-benzyl-5-methyl-4,5-dihydro-3H-1,2,2a^1,5-tetraazaacenaphthylen-7-yl)-N-(1-methyl-1H-pyrazol-5-yl)pyrimidin-2-amine]",5.04 nM
10,"CC(C)C[C@@H]1CNc2cc(-c3ccnc(Nc4ccnn4C)n3)cc3nnc1n23 [(R) I-10, 4-(3-isobutyl-4,5-dihydro-3H-1,2,2a^1,5-tetraazaacenaphthylen-7-yl)-N-(1-methyl-1H-pyrazol-5-yl)pyrimidin-2-amine]",2.75 nM
11,"COc1ccc(C[C@@H]2CNc3cc(-c4ccnc(Nc5ccnn5C)n4)cc4nnc2n34)cc1 [(R) I-11, 4-(3-(4-methoxybenzyl)-4,5-dihydro-3H-1,2,2a^1,5-tetraazaacenaphthylen-7-yl)-N-(1-methyl-1H-pyrazol-5-yl)pyrimidin-2-amine]",0.514 nM
12,"COc1ccc(C[C@@H]2CNc3cc(-c4ccnc(Nc5ccnn5C)n4)cc4nnc2n34)cc1F [(R) I-12, 4-(3-(3-fluoro-4-methoxybenzyl)-4,5-dihydro-3H-1,2,2a^1,5-tetraazaacenaphthylen-7-yl)-N-(1-methyl-1H-pyrazol-5-yl)pyrimidin-2-amine]",0.311 nM
13,"Cn1nccc1Nc1nccc(-c2cc3n4c(nnc4c2)[C@H](Cc2ccc(Cl)c(F)c2)CN3)n1 [(R) I-14, 4-(3-(4-chloro-3-fluorobenzyl)-4,5-dihydro-3H-1,2,2a^1,5-tetraazaacenaphthylen-7-yl)-N-(1-methyl-1H-pyrazol-5-yl)pyrimidin-2-amine]",0.0441 nM
14,"COc1ccc(C[C@@H]2CN(C)c3cc(-c4ccnc(Nc5ccnn5C)c4)cc4nnc2n34)cc1 [(R) I-18, 4-(3-(4-methoxybenzyl)-5-methyl-4,5-dihydro-3H-1,2,2a^1,5-tetraazaacenaphthylen-7-yl)-N-(1-methyl-1H-pyrazol-5-yl)pyridin-2-amine]",0.036 nM
15,"CC(C)C[C@@H]1CN(C)c2cc(-c3ccnc(Nc4ccnn4C)c3)cc3nnc1n23 [(R) I-20, 4-(3-isobutyl-5-methyl-4,5-dihydro-3H-1,2,2a^1,5-tetraazaacenaphthylen-7-yl)-N-(1-methyl-1H-pyrazol-5-yl)pyridin-2-amine]",48.7 nM
16,"Cn1nccc1Nc1nccc(-c2cc3n4c(nnc4c2)[C@H](Cc2ccc(F)cc2)CN3)n1 [(R) I-21, 4-(3-(4-fluorobenzyl)-4,5-dihydro-3H-1,2,2a^1,5-tetraazaacenaphthylen-7-yl)-N-(1-methyl-1H-pyrazol-5-yl)pyrimidin-2-amine]",0.731 nM
17,"CN1C(=O)C[C@@H](Cc2ccc(Cl)cc2)c2nnc3cc(-c4ccnc(Nc5ccnn5C)n4)cc1n23 [(R) I-22, 9-(4-chlorobenzyl)-6-methyl-4-(2-((1-methyl-1H-pyrazol-5-yl)amino)pyrimidin-4-yl)-8,9-dihydro-1,2,2a^1,6-tetraazabenzo[cd]azulen-7(6H)-one]",88.2 nM
18,"Cn1nccc1Nc1nccc(-c2cc3n4c(nnc4c2)[C@H](COCc2ccccc2)CCO3)n1 [(R) I-29, 4-(9-((benzyloxy)methyl)-8,9-dihydro-7H-6-oxa-1,2,2a^1-triazabenzo[cd]azulen-4-yl)-N-(1-methyl-1H-pyrazol-5-yl)pyrimidin-2-amine]",0.109 nM
19,"Cn1nccc1Nc1nccc(-c2cc3n4c(nnc4c2)[C@H](Cc2ccc(Cl)cc2)CCO3)n1 [(R) I-36, 4-(9-(4-chlorobenzyl)-8,9-dihydro-7H-6-oxa-1,2,2a^1-triazabenzo[cd]azulen-4-yl)-N-(1-methyl-1H-pyrazol-5-yl)pyrimidin-2-amine]",0.69 nM

# Now from value to compound:
row,IC50,SMILES
1,43.1 nM,"Cn1nccc1Nc1cc(-c2cc3n4c(nnc4c2)[C@H](c2ccccc2)CN3)ccn1 (single isomer, unassigned) [(R) I-4, N-(1-methyl-1H-pyrazol-5-yl)-4-(3-phenyl-4,5-dihydro-3H-1,2,2a^1,5-tetraazaacenaphthylen-7-yl)pyridin-2-amine]"
2,2.55 nM,"Cn1nccc1Nc1cc(-c2cc3n4c(nnc4c2)C(Cc2ccccc2Cl)CCO3)ccn1 (single isomer, unassigned) [(R) I-30, 4-(9-(2-chlorobenzyl)-8,9-dihydro-7H-6-oxa-1,2,2a^1-triazabenzo[cd]azulen-4-yl)-N-(1-methyl-1H-pyrazol-5-yl)pyridin-2-amine]"
3,2.55 nM,"Cn1nccc1Nc1cc(-c2cc3n4c(nnc4c2)C(Cc2ccccc2Cl)CCO3)ccn1 (single isomer, unassigned) [(R) I-60, 4-(9-(2-chlorobenzyl)-8,9-dihydro-7H-6-oxa-1,2,2a^1-triazabenzo[cd]azulen-4-yl)-N-(1-methyl-1H-pyrazol-5-yl)pyridin-2-amine]"
4,< 0.02 nM,"Cn1nccc1Nc1cc(-c2cc3n4c(nnc4c2)[C@@H](c2ccccc2)CN3)ccn1 (single isomer, unassigned) [(S) I-4, N-(1-methyl-1H-pyrazol-5-yl)-4-(3-phenyl-4,5-dihydro-3H-1,2,2a^1,5-tetraazaacenaphthylen-7-yl)pyridin-2-amine]"
5,< 0.02 nM,"Cn1nccc1Nc1cc(-c2cc3n4c(nnc4c2)C(Cc2ccccc2Cl)CCO3)ccn1 (single isomer, unassigned) [(S) I-60, 4-(9-(2-chlorobenzyl)-8,9-dihydro-7H-6-oxa-1,2,2a^1-triazabenzo[cd]azulen-4-yl)-N-(1-methyl-1H-pyrazol-5-yl)pyridin-2-amine]"
6,19.5 nM,"CCCC1COc2cc(-c3ccnc(Nc4ccnn4C)n3)cc3nnc1n23 (single isomer, unassigned) [(S) I-101, N-(1-methyl-1H-pyrazol-5-yl)-4-(3-propyl-3,4-dihydro-5-oxa-1,2,2a^1-triazaacenaphthylen-7-yl)pyrimidin-2-amine]"
7,0.408 nM,"Cn1nccc1Nc1nccc(-c2cc3n4c(nnc4c2)[C@H](Cc2ccc(Cl)cc2)CN3)n1 [(R) I-5, 4-(3-(4-chlorobenzyl)-4,5-dihydro-3H-1,2,2a^1,5-tetraazaacenaphthylen-7-yl)-N-(1-methyl-1H-pyrazol-5-yl)pyrimidin-2-amine]"
8,0.707 nM,"Cn1nccc1Nc1cc(-c2cc3n4c(nnc4c2)[C@H](Cc2ccccc2)CN3)ccn1 [(R) I-7, 4-(3-benzyl-4,5-dihydro-3H-1,2,2a^1,5-tetraazaacenaphthylen-7-yl)-N-(1-methyl-1H-pyrazol-5-yl)pyridin-2-amine]"
9,0.02 nM,"Cn1nccc1Nc1nccc(-c2cc3n4c(nnc4c2)[C@@H](Cc2ccccc2)CO3)n1 [(R) I-15, 4-(3-benzyl-3,4-dihydro-5-oxa-1,2,2a^1-triazaacenaphthylen-7-yl)-N-(1-methyl-1H-pyrazol-5-yl)pyrimidin-2-amine]"
10,1.85 nM,"COc1ccc(C[C@@H]2CNc3cc(-c4ccnc(Nc5ccnn5C)n4)cc4nnc2n34)cn1 [(R) I-24, 4-(3-((6-methoxypyridin-3-yl)methyl)-4,5-dihydro-3H-1,2,2a^1,5-tetraazaacenaphthylen-7-yl)-N-(1-methyl-1H-pyrazol-5-yl)pyrimidin-2-amine]"
11,1.35 nM,"CN1C[C@@H](Cc2ccc(F)cc2)c2nnc3cc(-c4ccnc(Nc5ccnn5C)n4)cc1n23 [(R) I-31, 4-(3-(4-fluorobenzyl)-5-methyl-4,5-dihydro-3H-1,2,2a^1,5-tetraazaacenaphthylen-7-yl)-N-(1-methyl-1H-pyrazol-5-yl)pyrimidin-2-amine]"
